Assay results as given in patent publication US5637591A, “Antimicrobial and anticollagenase activity of phenazine-5, 10-dioxide and derivatives” (Fuji ImmunoPharmaceuticals Corp., priority 1995, dated 1997).
Like-named read-outs stand apart in the source and are kept apart here.

What was measured:
[1] = tested on: purified collagenase from P. gingivalis; test: anti-collagenase activity, 3H-collagen hydrolysis; assay type: biochemical; conditions: for % Inhibition of collagenase: 24 h at 25° C.
Experimental: Collagenase activity in the presence of the preferred compound 2-aminophenazine-5,10-dioxide and in the presence of Tetracycline were measured by incubating ^3 H-collagen with purified collagenase from P. gingivalis using increasing drag concentrations. After 24 h at 25° C., unhydrolyzed collagen fibers were removed from the mixture by centrifugation, and the specific activity of ^3 H in the supernatant quantified as a measure of hydrolyzed collagen. Percent inhibition was determined by subtracting the value in the presence of test compound from the control value, then dividing this quantity by the control value [(control-compound)/control×100].

[2] = assay type: in vivo; conditions: for Other Signs of Toxicity: in vivo
Experimental: Toxicity was also evaluated in rodents via intravenous (IV) and oral (PO) routes of administration across a range of dose levels.

P. gingivalis = test: bone loss after oral colonization with P. gingivalis in mice, systemic administration; assay type: in vivo, BALB/c mice; conditions: infected mice, IP daily; 25 d (2-methylphenazine-5,10-dioxide) or 40 d (Tetracycline)
Experimental: An animal model for testing the antimicrobial activity of the invention against P. gingivalis was conducted by inducing oral colonization of the microbe in BALB/c mice. Drug (2-methylphenazine-5,10-dioxide or Tetracycline) or control (2.5% cyclodextran) was administered intraperitoneally once each day for 25 days (2-methylphenazine-5,10-dioxide) or 40 days (Tetracycline). On the day following the last dose administration, the rear molars of the mice were swabbed and the swabs incubated in a growth medium to assess the presence of P. gingivalis. Mice were then sacrificed and jaw bones harvested for evaluation of bone loss.

Nc1ccc2c(c1)[n+]([O-])c1ccccc1[n+]2[O-] [2-aminophenazine-5,10-dioxide]
% Inhibition of collagenase ([1]; 1 μg/ml): 11.6%
% Inhibition of collagenase ([1]; 10 μg/ml): 47.3%
% Inhibition of collagenase ([1]; 50 μg/ml): 57.3%
% Inhibition of collagenase ([1]; 100 μg/ml): 81.7%
anti-collagenase IC50 ([1]; estimated from Table 5): more than 10 μg/ml

Cc1ccc2c(c1)[n+]([O-])c1ccccc1[n+]2[O-] [2-methylphenazine-5,10-dioxide]
Deaths ([2]; Mice, 5 mg/kg IV, 25% Cremaphor, 1 administration): 0
Deaths ([2]; Mice, 5 mg/kg IV, 30% Encapsin CD, 1 administration): 0
Deaths ([2]; Mice, 5 mg/kg IV, 100% DMSO, 1 administration): 0
Deaths ([2]; Mice, 30 mg/kg IV, 10% Cremaphor, 1 administration): 0
Deaths ([2]; Mice, 40 mg/kg IV, 25% Cremaphor, 1 administration): 0
Deaths ([2]; Mice, 50 mg/kg IV, 30% Encapsin CD, 1 administration): 0
Deaths ([2]; Mice, 800 mg/kg PO, 100% Cremaphor, 1 administration): 0
Deaths ([2]; Mice, 1000 mg/kg PO, 100% Cremaphor, 1 administration): 1/2
Deaths ([2]; Rats, 5 mg/kg IV, 20% Cremaphor, 1 administration): 0
Deaths ([2]; Rats, 10 mg/kg IV, 25% Encapsin CD/10% DMSO, 1 administration): 0
Deaths ([2]; Rats, 20 mg/kg IV, 30% Encapsin CD, 1 administration): 0
Deaths ([2]; Rats, 50 mg/kg PO, 2% Brij 35/Water, 1 administration): 0
Deaths ([2]; Rats, 50 mg/kg PO, 10% Brij 35/Mineral Oil, 1 administration): 0
Deaths ([2]; Rats, 50 mg/kg PO, 10% Brij 35/Water, 1 administration): 0
Deaths ([2]; Rats, 50 mg/kg PO, Water, 1 administration): 0
Deaths ([2]; Rats, 80 mg/kg PO, 10% Cremaphor, 1 administration): 0
Deaths ([2]; Rats, 100 mg/kg PO, 2% Brij 35, 1 administration): 0
Deaths ([2]; Rats, 100 mg/kg PO, 10% Arlacel 83/Corn Oil, 1 administration): 0
Deaths ([2]; Rats, 100 mg/kg PO, 100% PEG400, 1 administration): 0
Deaths ([2]; Rats, 100 mg/kg PO, 110% Encapsin CD, 1 administration): 0
Deaths ([2]; Rats, 200 mg/kg PO, 100% Cremaphor, 1 administration): 0
Other Signs of Toxicity ([2]; mouse, iv, 5 mg/kg): NONE
Other Signs of Toxicity ([2]; mouse, iv, 30 mg/kg): NONE
Other Signs of Toxicity ([2]; mouse, iv, 40 mg/kg): NONE
Other Signs of Toxicity ([2]; mouse, iv, 50 mg/kg): Abnormal Clin Obs
Other Signs of Toxicity ([2]; mouse, po, 800 mg/kg): NONE
Other Signs of Toxicity ([2]; mouse, po, 1000 mg/kg): NONE
Other Signs of Toxicity ([2]; rat, iv, 10 mg/kg): NONE
Other Signs of Toxicity ([2]; rat, iv, 20 mg/kg): NONE
Other Signs of Toxicity ([2]; rat, po, 50 mg/kg): NONE
Other Signs of Toxicity ([2]; rat, po, 80 mg/kg): NONE
Other Signs of Toxicity ([2]; rat, po, 100 mg/kg): NONE
Other Signs of Toxicity ([2]; rat, po, 200 mg/kg): NONE
effect of treatment on bone loss (P. gingivalis): reduced the observed bone loss
